Measured values: article PMC12785453, “Oral Fluid Concentrations and Pharmacological Effects of Clephedrone and Methylone in Humans” (International Journal of Molecular Sciences, 2025)

Legend:
[1] = Oral fluid concentrations of clephedrone (GC-MS/MS); format: in vivo, humans; details: both sexes, human, 100 or 150 mg oral
Method: This study consisted of one experimental session in which participants (N = 8; 6 women, 2 men) selected their oral dose of clephedrone based on their drug use experience and preferences. According to their dose selection, 3 women and 1 man ingested 100 mg of clephedrone, while the remaining 3 women and 1 man opted for a higher dose of 150 mg. […] Participants were recruited by word of mouth by the harm reduction organization Energy Control in Barcelona (Associació Benestar i Desenvolupament, ABD).
In both studies, oral fluid samples for the quantification of clephedrone and methylone concentration were collected using Salivette standard tubes. For clephedrone, oral fluid samples were collected at baseline, 0.50, 1, 1.5, 2, 3, 4, and 5 h, whereas for methylone, they were collected at baseline, 0.25, 0.50, 0.75, 1, 1.5, 2, 3, 4, 6, 8, and 10 h. After collection, all samples were centrifuged and stored frozen at −20 °C until analysis. Clephedrone oral fluid concentrations were determined using a previously validated gas chromatography coupled to mass spectrometry systems (GC-MS/MS). Methylone was quantified via liquid chromatography–tandem mass spectrometry (LC–MS/MS).
For oral fluid concentrations of clephedrone and methylone, only a descriptive analysis was performed to obtain the main pharmacokinetics data, including the maximum concentration (Cmax), the time required to reach maximum concentrations (Tmax), and AUC up to 5 h (AUC0–5h) for clephedrone and up to 6 h (AUC0–6h) for methylone. These parameters were calculated using the Pharmacokinetic Functions for Microsoft Excel (Joel Usansky, Atul Desai, and Diane Tang-Liu, Department of Pharmacokinetics and Drug Metabolism, Allergan, Irvine, CA, USA). Oral cortisol concentrations after clephedrone were analyzed using Dunnett’s multiple comparison test (each time point with baseline).

[2] = tested on: healthy male participants; test: Subjective effects, ARCI short form, methylone trial; format: in vivo, humans; details: 150 or 200 mg oral
Method: Methylone pharmacology was evaluated in a study designed as a randomized, double-blind, placebo-controlled, crossover clinical trial. Four pilot studies were conducted administering methylone at oral doses of 50 (n = 3), 100 (n = 6), 150 (n = 5), and 200 mg (n = 7). Participants attended 3 experimental sessions separated by a one-week wash-out period and received two doses of methylone (one dose per experimental session) compared to placebo, except in the last pilot study in which participants received one dose of methylone, compared to MDMA and placebo. However, in this manuscript, only the results corresponding to the highest methylone doses (n = 12; 150 and 200 mg; mean dose = 179.2 mg) are presented, to enable comparison with clephedrone self-administration. Participants were recruited by word of mouth in the volunteer database of the clinical pharmacology unit.
Methylone hydrochloride of high purity in powder form was acquired from LGC Standards (Teddington, UK) for the controlled study. The Pharmacy Department of the Hospital Universitari Germans Trias i Pujol was responsible for manufacturing, storing, and dispensing identical and opaque soft gelatin capsules containing 50 mg of methylone or a placebo (maltodextrin). Treatment consisted of 5 capsules that combined methylone and/or a placebo to reach the target dose. Details can be found in the previous article.
Subjective effects were evaluated with visual analog scales (VAS), the short form of the Addiction Research Center Inventory (ARCI), and the Evaluation of Subjective Effects of Substances with Abuse Potential questionnaire (VESSPA-SSE). In addition, the Sensitivity to Drug Reinforcement Questionnaire (SDRQ) and a pharmacological identification class questionnaire were used in the controlled study administering methylone.
The validated ARCI 49-item short form was used to evaluate and discriminate the subjective following five subscales that correspond to different classes of drugs of abuse: pentobarbital-chlorpromazine-alcohol group (PCAG) is susceptible to sedative effects, morphine-benzedrine group (MBG) is susceptible to euphoric effects, lysergic acid diethylamide (LSD) is susceptible to dysphoria and somatic symptoms, benzedrine (BG) is susceptible to intellectual efficiency and energy, and amphetamine (A) is susceptible to amphetamine-like effects.
Participants included in the naturalistic clephedrone study completed VAS at baseline, 0.50, 1, 1.5, 2, 3, 4, and 5 h, and ARCI and VESSPA at baseline, 1, 2, 3, 4, and 5 h after self-administering clephedrone. In the controlled study, VAS was performed at baseline and 0.25, 0.50, 0.75, 1, 1.5, 2, 3, 4, 6, 8, 10, and 24 h, and ARCI and VESSPA at baseline and 1, 2, 3, 4, 6, 8, and 10 h after administering methylone. Participants completed SDRQ and VAS sexual desire and arousal at baseline, 1 and 10 h, and the pharmacological class identification questionnaire at 8 h.
For statistical analysis, values of physiological (SBP, DBP, HR, and T) and subjective effects (VAS, ARCI, and VESSPA-SSE) were baseline–adjusted. Maximum effects (Emax) and the time needed to reach maximum effects (Tmax) were determined, and the area under the curve up to 5 h (AUC0–5h) for clephedrone and up to 6 h (AUC0–6h) for methylone was calculated using the trapezoidal rule. Emax and AUC values are presented as mean ± standard deviation, whereas Tmax is presented in median (range).
To find possible significant changes through the time course compared to baseline, a Dunnett multiple comparison test was carried out to compare each time point with baseline in both drug conditions. For clephedrone the comparisons were 0–0.5 h, 0–1 h, 0–1.5 h, 0–2 h, 0–3 h, 0–4 h and 0–5 h, and for methylone this analysis included 0–0.25 h, 0–0.5 h, 0–0.75 h, 0–1 h, 0–1.5 h, 0–2 h, 0–3 h, 0–4 h and 0–6 h. Given their different study designs, no comparative analysis between the time courses of both synthetic cathinones was conducted.

Row | SMILES | Cmax ([1]; n=8) | Tmax ([1]; n=8) | AUC(0-t) ([1]; n=8, read-out: Oral fluid AUC0–5 h) | Tmax of effects collected using ARCI [2] | ARCI A (amphetamine-like effects) Emax ([2]; n=12) | ARCI BG (intellectual efficiency) Emax ([2]; n=12) | ARCI LSD (dysphoria) Emax ([2]; n=12) | ARCI MBG (euphoria) Emax ([2]; n=12) | ARCI PCAG (sedation) Emax ([2]; n=12) | ARCI A (amphetamine-like effects) AUC0-5/6 h ([2]; AUC0–6h, n=12) | ARCI BG (intellectual efficiency) AUC0-5/6 h ([2]; AUC0–6h, n=12) | ARCI LSD (dysphoria) AUC0-5/6 h ([2]; AUC0–6h, n=12) | ARCI MBG (euphoria) AUC0-5/6 h ([2]; AUC0–6h, n=12) | ARCI PCAG (sedation) AUC0-5/6 h ([2]; AUC0–6h, n=12)
1 | CNC(C)C(=O)c1ccc(Cl)cc1 (centres unmarked) [Clephedrone, 4-chloromethcathinone] | 6410 ± 3490 ng/mL | 3 h | 10700 ng·h/mL |  |  |  |  |  |  |  |  |  |  | 
2 | CNC(C)C(=O)c1ccc2c(c1)OCO2 (centres unmarked) [Methylone, 3,4-methylenedioxy-N-methylcathinone] |  |  |  | 1 h | 2.92 ± 1.73 points | 1.50 ± 1.09 points | –0.25 ± 1.29 points | 5.92 ± 4.68 points | 2.17 ± 3.49 points | 4.33 ± 2.77 points·h | 0.83 ± 1.81 points·h | –0.96 ± 1.81 points·h | 8.25 ± 6.89 points·h | 5.46 ± 8.86 points·h
